Measurements reported in patent US6737383B1, “Herbicidal oxadiazolidines” (priority 1999, dated 2004).

Experiments:
[1] = tested on: bedstraw; test: Test B pre/postemergence bedstraw; assay type: in vivo, Galium aparine
How it was run: (§1)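 Test chemicals in a non-phytotoxic solvent mixture with surfactant were sprayed preemergence onto planted seeds and postemergence onto plants 2 to 18 cm tall (1- to 4-leaf stage). After twelve to sixteen days in a greenhouse, injury was visually rated against untreated controls from 0 (no effect) to 10 (complete control).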

[2] = tested on: surinam grass; test: Test B pre/postemergence surinam grass; assay type: in vivo, Brachiaria decumbens
How it was run: as §1

[3] = tested on: cocklebur; test: Test B pre/postemergence cocklebur; assay type: in vivo, Xanthium strumarium
How it was run: as §1

[4] = tested on: corn; test: Test B pre/postemergence corn; assay type: in vivo, Zea mays
How it was run: as §1

[5] = tested on: giant foxtail; test: Test B pre/postemergence giant foxtail; assay type: in vivo, Setaria faberii
How it was run: as §1

[6] = tested on: pigweed; test: Test B pre/postemergence pigweed; assay type: in vivo, Amaranthus retroflexus
How it was run: as §1

[7] = tested on: rape; test: Test B pre/postemergence rape; assay type: in vivo, Brassica napus
How it was run: as §1

[8] = tested on: soybean; test: Test B pre/postemergence soybean; assay type: in vivo, Glycine max
How it was run: as §1

[9] = tested on: sugar beet; test: Test B pre/postemergence sugar beet; assay type: in vivo, Beta vulgaris
How it was run: as §1

[10] = tested on: velvetleaf; test: Test B pre/postemergence velvetleaf; assay type: in vivo, Abutilon theophrasti
How it was run: as §1

[11] = tested on: wheat; test: Test B pre/postemergence wheat; assay type: in vivo, Triticum aestivum
How it was run: as §1

[12] = tested on: wild oat; test: Test B pre/postemergence wild oat; assay type: in vivo, Avena fatua
How it was run: as §1

[13] = tested on: purple nutsedge; test: Test B pre/postemergence purple nutsedge; assay type: in vivo, Cyperus rotundus
How it was run: as §1

[14] = tested on: rice; test: Test B flood test rice; assay type: in vivo, Oryza sativa
How it was run: (§2)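 Read-out is a visual response score from 0 (no effect) to 10 (complete control), assigned by comparison with untreated controls. Treatment was applied at the 2-leaf stage, and plants stayed in the greenhouse for twelve to sixteen days before scoring.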

[15] = tested on: smallflower flatsedge; test: Test B flood test smallflower flatsedge; assay type: in vivo, Cyperus difformis
How it was run: as §2

[16] = tested on: duck salad; test: Test B flood test duck salad; assay type: in vivo, Heteranthera limosa
How it was run: as §2

[17] = Postemergence, Rate 62 g/ha, scale 0 to 10, 0 is no effect, 10 is complete control
[18] = Postemergence, Rate 250 g/ha, scale of 0 to 10, 0 is no effect, 10 is complete control
[19] = Preemergence, Rate 250 g/ha, scale 0 to 10 (0 no effect, 10 complete control)
[20] = Preemergence, Rate 500 g/ha, scale of 0 to 10 where 0 is no effect and 10 is complete control
[21] = Postemergence, Rate 125 g/ha, scale of 0 to 10 where 0 is no effect and 10 is complete control
[22] = Postemergence, Rate 500 g/ha, scale of 0 to 10 where 0 is no effect and 10 is complete control
[23] = Preemergence, Rate 62 g/ha, scale 0 to 10 (0 no effect, 10 complete control)
[24] = Preemergence, Rate 125 g/ha, scale of 0 to 10 where 0 is no effect and 10 is complete control
[25] = Rate 62 g/ha, flood test species, Pre-emergence, visual evaluation after twelve to sixteen days
[26] = Rate 125 g/ha, under heading Pre-emergence, flood test species, visual evaluation after twelve to sixteen days
[27] = Rate 250 g/ha, Pre-emergence (flood test species), scale 0 to 10, 0 is no effect, 10 is complete control
[28] = Rate 500 g/ha, Pre-emergence section of Table B, 0 to 10 scale (0 no effect, 10 complete control)

CC(C)N(C(=O)n1oc(=O)n(CNC(=O)c2ccccc2)c1=O)c1ccc(F)cc1F [Compound 619]
Plant response rating, Bedstraw [1, 17]: 0 | Bedstraw plant response rating [1, 18]: 0 | Plant response rating, Bedstraw [1, 19]: 0 | Bedstraw plant response rating [1, 20]: 0 | Plant response rating, B. signalgrass [2, 17]: 0 | Plant response rating, B. signalgrass [2, 21]: 0 | B. signalgrass plant response rating [2, 18]: 0 | Plant response rating, B. signalgrass [2, 22]: 2 | B. signalgrass plant response rating [2, 23]: 0 | B. signalgrass plant response rating [2, 24]: 0 | Plant response rating, B. signalgrass [2, 19]: 0 | B. signalgrass plant response rating [2, 20]: 3 | Plant response rating, Cocklebur [3, 17]: 0 | Plant response rating, Cocklebur [3, 21]: 0 | Cocklebur plant response rating [3, 18]: 0 | Plant response rating, Cocklebur [3, 22]: 0 | Cocklebur plant response rating [3, 23]: 0 | Cocklebur plant response rating [3, 24]: 0 | Plant response rating, Cocklebur [3, 19]: 0 | Plant response rating, Cocklebur [3, 20]: 0 | Plant response rating, Corn [4, 17]: 0 | Plant response rating, Corn [4, 21]: 0 | Corn plant response rating [4, 18]: 0 | Plant response rating, Corn [4, 22]: 0 | Corn plant response rating [4, 23]: 0 | Corn plant response rating [4, 24]: 0 | Plant response rating, Corn [4, 19]: 0 | Plant response rating, Corn [4, 20]: 2 | Plant response rating, Giant foxtail [5, 17]: 0 | Plant response rating, Giant foxtail [5, 21]: 0 | Giant foxtail plant response rating [5, 18]: 0 | Plant response rating, Giant foxtail [5, 22]: 3 | Giant foxtail plant response rating [5, 23]: 0 | Giant foxtail plant response rating [5, 24]: 3 | Plant response rating, Giant foxtail [5, 19]: 7 | Plant response rating, Giant foxtail [5, 20]: 8 | Plant response rating, Redroot pigweed [6, 17]: 0 | Plant response rating, Redroot pigweed [6, 21]: 0 | Redroot pigweed plant response rating [6, 18]: 1 | Redroot pigweed plant response rating [6, 23]: 0 | Redroot pigweed plant response rating [6, 24]: 0 | Plant response rating, Redroot pigweed [6, 19]: 0 | Plant response rating, Redroot pigweed [6, 20]: 0 | Plant response rating, Rape [7, 17]: 0 | Plant response rating, Rape [7, 21]: 0 | Rape plant response rating [7, 18]: 0 | Plant response rating, Rape [7, 22]: 3 | Rape plant response rating [7, 23]: 0 | Rape plant response rating [7, 24]: 0 | Plant response rating, Rape [7, 19]: 0 | Plant response rating, Rape [7, 20]: 0 | Plant response rating, Soybean [8, 17]: 1 | Plant response rating, Soybean [8, 21]: 1 | Soybean plant response rating [8, 18]: 1 | Soybean plant response rating [8, 23]: 0 | Soybean plant response rating [8, 24]: 0 | Plant response rating, Soybean [8, 19]: 0 | Plant response rating, Soybean [8, 20]: 0 | Plant response rating, Sugarbeets [9, 17]: 0 | Plant response rating, Sugarbeets [9, 21]: 0 | Sugarbeets plant response rating [9, 18]: 0 | Sugarbeets plant response rating [9, 23]: 0 | Sugarbeets plant response rating [9, 24]: 0 | Plant response rating, Sugarbeets [9, 19]: 0 | Plant response rating, Sugarbeets [9, 20]: 0 | Plant response rating, Velvetleaf [10, 17]: 0 | Plant response rating, Velvetleaf [10, 21]: 0 | Velvetleaf plant response rating [10, 18]: 2 | Velvetleaf plant response rating [10, 23]: 0 | Velvetleaf plant response rating [10, 24]: 0 | Plant response rating, Velvetleaf [10, 19]: 0 | Plant response rating, Velvetleaf [10, 20]: 4 | Plant response rating, Wheat [11, 17]: 0 | Plant response rating, Wheat [11, 21]: 0 | Wheat plant response rating [11, 18]: 0 | Wheat plant response rating [11, 23]: 0 | Wheat plant response rating [11, 24]: 0 | Plant response rating, Wheat [11, 19]: 0 | Plant response rating, Wheat [11, 20]: 0 | Plant response rating, Wild oats [12, 17]: 0 | Plant response rating, Wild oats [12, 21]: 0 | Wild oats plant response rating [12, 18]: 0 | Wild oats plant response rating [12, 23]: 0 | Wild oats plant response rating [12, 24]: 0 | Plant response rating, Wild oats [12, 19]: 0 | Plant response rating, Wild oats [12, 20]: 0 | Plant response rating, Nutsedge [13, 17]: 0 | Plant response rating, Nutsedge [13, 21]: 0 | Nutsedge plant response rating [13, 18]: 0 | Plant response rating, Nutsedge [13, 22]: 0 | Nutsedge plant response rating [13, 23]: 0 | Nutsedge plant response rating [13, 24]: 0 | Plant response rating, Nutsedge [13, 19]: 0 | Plant response rating, Rice (0 to 10 scale, 0 is no effect, 10 is complete control) [14, 25]: 0 | Rice plant response rating (0 to 10 scale, 0 is no effect, 10 is complete control) [14, 26]: 0 | Rice plant response rating [14, 27]: 0 | Rice plant response rating [14, 28]: 0 | Plant response rating, S. Flatsedge (0 to 10 scale, 0 is no effect, 10 is complete control) [15, 25]: 0 | S. Flatsedge plant response rating (0 to 10 scale, 0 is no effect, 10 is complete control) [15, 26]: 0 | S. Flatsedge plant response rating [15, 27]: 0 | S. Flatsedge plant response rating [15, 28]: 0 | Plant response rating, Ducksalad (0 to 10 scale, 0 is no effect, 10 is complete control) [16, 25]: 0 | Ducksalad plant response rating (0 to 10 scale, 0 is no effect, 10 is complete control) [16, 26]: 0 | Ducksalad plant response rating [16, 27]: 0 | Ducksalad plant response rating [16, 28]: 0
